# Test results as given in publication PMC6696147, “Broad-Spectrum Antiviral Natural Products from the Marine-Derived Penicillium sp. IMB17-046” (Molecules, 2019).
# Where two headings read alike, the source gives them in different places.
# What was measured:
# HIV-1 = assay: microbe, parasite or virus in culture; type: cell-based; details: Human immunodeficiency virus 1, SUP-T1, 48 h, read-out: HIV-1 IC50
# in vitro [1] = details: human
# [2] = system: wild-type and multi-drug resistant HIV-1; parameters: method as in doi:10.1007/s11426-018-9283-3; details: cited from earlier work
# Helicobacter pylori = assay: Antibacterial assay, broth micro-dilution MIC, H. pylori; type: cell-based; details: for MIC: Helicobacter pylori; for H. pylori MIC, range over strains: clinically isolated H. pylori, strains G27 and 159 together
# Experimental: (§1) The antibacterial activities against H. pylori, S. aureus, B. subtilis, P. aeruginosa, and K. pneumonia were assayed by examining the MIC using the broth micro-dilution method as previously described.
# [3] = Cytotoxicity assay (MTT), uninfected Huh7.5 cells; type: cell-based; details: human, read-out: HCV CC50
# Experimental: Cytotoxicity of compounds were assayed for the uninfected 293T-Gluc, SupT1, and Huh7.5 cells. 293T-Gluc and Huh7.5 cells were cultured in Dulbecco’s modified Eagle’s medium supplemented with 10% fetal bovine serum (FBS, Invitrogen). SupT1 cells were cultured in RPMI1640 medium supplemented with 10% FBS. Various concentrations of test compounds (1 μL each well) were added to the 293T-Gluc and SupT1 cells (1 × 10^5 cells/well) in 96-well plates. After incubation at 37 °C for 48 h, 10 μL of CCK-8 reagent was added to the cells and they were incubated for another 4 h. Then, the absorbance of each well was recorded at 450 nm. A cytotoxicity assay for Huh7.5 cells was carried out using the MTT method as described previously.
# HCV = assay: Anti-HCV assay; type: cell-based; details: Hepatitis C virus
# Experimental: Anti-HCV assays were carried out as described previously.
# Bacillus subtilis = assay: Antibacterial assay, broth micro-dilution MIC, B. subtilis; type: cell-based; details: read-out: MIC against Bacillus subtilis
# Experimental: as §1
# Pseudomonas aeruginosa = assay: Antibacterial assay, broth micro-dilution MIC, P. aeruginosa; type: cell-based; details: read-out: MIC against Pseudomonas aeruginosa
# Experimental: as §1
# Staphylococcus aureus = assay: Antibacterial assay, broth micro-dilution MIC, S. aureus; type: cell-based; details: read-out: MIC against Staphylococcus aureus
# Experimental: as §1
# Klebsiella pneumoniae = assay: Antibacterial assay, broth micro-dilution MIC, K. pneumoniae; type: cell-based; details: read-out: MIC against Klebsiella pneumoniae
# Experimental: as §1
# in vitro [4] = details: human; remark: listed apart in the source
# [5] = drug-resistant strain 159, read-out: H. pylori MIC, 159
# [6] = drug-sensitive strain G27, read-out: H. pylori MIC, G27
structure (smiles),measurement,setting,value
"C=C(CC[C@@H](C)[C@H]1CC[C@H]2C3=C(CC[C@]12C)[C@@]1(C)CC[C@H](O)CC1CC3=O)C(C)C (stereo partly drawn) [Compound 7, 3β-hydroxyergosta-8,24(28)-dien-7-one]",IC50,HIV-1,> 10 µM
same,CC50,in vitro [1],> 100 µM
"CC(C)[C@H](C)CC[C@](C)(O)[C@H]1C(=O)C[C@H]2[C@@H]3C(=O)C=C4C[C@@H](O)CC[C@]4(C)[C@H]3CC[C@@]21C [amotsterol D, (20S,24R)-3β,20-dihydroxyergostan-5(6)-en-7,16-dione]",effectiveness against HIV-1,[2],low micromolar range
"O=C1Nc2ccc(Cl)cc2[C@@](C#CC2CC2)(C(F)(F)F)O1 [Efavirenz, reference compound]",CC50,in vitro [1],> 100 µM
"Cc1ncc([N+](=O)[O-])n1CCO [Metronidazole, reference compound]",MIC,Helicobacter pylori; [5],16 mg/L
same,MIC,Helicobacter pylori; [6],1 mg/L
"CCC[C@H](NC(=O)[C@@H]1[C@H]2CCC[C@H]2CN1C(=O)[C@@H](NC(=O)[C@@H](NC(=O)c1cnccn1)C1CCCCC1)C(C)(C)C)C(=O)C(=O)NC1CC1 [VX-950, reference compound]",CC50,[3],25.8 ± 3.4 µM
same,IC50,HCV,0.05 ± 0.03 µM
"COc1cc(=O)oc(C=CC=CC=CC(C)=CC2(C)OC(C)C(C)(O)C2O)c1C (single isomer, unassigned; (+)) [Compound 2, (+)-neocitreoviridin]",MIC,Bacillus subtilis,> 128 mg/L
same,MIC,Pseudomonas aeruginosa,> 128 mg/L
same,IC50,HIV-1,> 10 µM
same,MIC,Helicobacter pylori; [5],1 mg/L
same,MIC,Helicobacter pylori; [6],4 mg/L
same,"H. pylori MIC, range over strains",Helicobacter pylori,1 to 16 mg/L
same,CC50,in vitro [1],> 100 µM
same,MIC,Staphylococcus aureus,> 128 mg/L
same,MIC,Klebsiella pneumoniae,> 128 mg/L
"CC(C)[C@@H](C)/C=C/[C@@H](C)[C@H]1CC[C@H]2C3=C[C@@H](O)[C@@]4(O)C[C@@H](O)CC[C@]4(C)[C@H]3CC[C@]12C [Compound 8, (22E,24R)-24-methyl-5α-cholesta-7,22-dien-3β,5,6β-triol]",IC50,HIV-1,6.2 ± 0.2 µM
"CC[C@H](C)c1nc(OC)c(Cc2c[nH]c3ccccc23)nc1O [Compound 1, (S)-6-((1H-indol-3-yl)methyl)-3-(sec-butyl)-5-methoxypyrazin-2-ol]",MIC,Bacillus subtilis,> 128 mg/L
same,CC50,[3],116 ± 4.9 µM
same,MIC,Pseudomonas aeruginosa,> 128 mg/L
same,IC50,HIV-1,4.6 ± 0.3 µM
same,IC50,HCV,7.7 ± 0.2 µM
same,MIC,Helicobacter pylori; [5],16 mg/L
same,MIC,Helicobacter pylori; [6],4 mg/L
same,"H. pylori MIC, range over strains",Helicobacter pylori,1 to 16 mg/L
same,MIC,Staphylococcus aureus,> 128 mg/L
same,MIC,Klebsiella pneumoniae,> 128 mg/L
"C=C(CC[C@@H](C)[C@H]1CC=C2C3=C(CC[C@@]21C)[C@@]1(C)CC[C@H](O)CC1CC3=O)C(C)C (stereo partly drawn) [Compound 3, 3β-hydroxyergosta-8,14,24(28)-trien-7-one]",IC50,HIV-1,3.5 ± 0.8 µM
"NC(=O)c1ncn([C@@H]2O[C@H](CO)[C@@H](O)[C@H]2O)n1 [Ribavirin, reference compound]",CC50,in vitro [4],> 100 µM
